Experiment [1] has as its system P. aeruginosa. The format is cell-based, Pseudomonas aeruginosa. How it is done:
(§1) Typically, the in vitro antimicrobial activity of antimicrobial agents is tested using standard NCCLS bacterial inhibition assays, or MIC tests (see, National Committee on Clinical Laboratory Standards “Performance Standards for Antimicrobial Susceptibility Testing,” NCCLS Document M100-S5 Vol. 14, No. 16, December 1994; “Methods for dilution antimicrobial susceptibility test for bacteria that grow aerobically-Third Edition,” Approved Standard M7-A3, National Committee for Clinical Standards, Villanova, Pa.).
(§2) Briefly, ˜1×10^5 cfu/mL bacteria were diluted in TH (S. mutans), or Mueller-Hinton (MH) broth (all other organisms) and distributed to 96-well plates. Serially-diluted (2-fold) peptides were then added and the plates incubated at 37° C. for 18-24 h. […] All experiments were conducted 10 times.

For experiment [2], the system named is MRSA. Put plainly: MIC (broth microdilution). It counts as cell-based, Methicillin-resistant Staphylococcus aureus. In a few lines:
(§3)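 Ten repeat experiments used NCCLS dilution susceptibility testing: MH broth, ˜1×10^5 cfu/mL starting density, 2-fold peptide titration, 18-24 h incubation at 37° C.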
A general note: Dilution methods test growth across graded concentrations, often in twofold steps.

For experiment [3], the system named is T. rubrum. Put plainly: MIC (broth microdilution). The format is cell-based, Trichophyton rubrum. Here is the method: as §1, §2
Experiment [4] has as its system A. niger. The experiment in a line: MIC (broth microdilution). The format is cell-based, Aspergillus niger. A digest of the protocol:
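~1×10^5 cfu/mL inoculum, MH broth; peptides 2-fold serial dilution; 37° C., 18-24 h; n=10; NCCLS M7-A3 method.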

For experiment [5], the system named is B. subtilis. Put plainly: MIC (broth microdilution). It counts as cell-based, Bacillus subtilis. In a few lines: as §3
The subject of experiment [6] is C. jeikeium. Put plainly: MIC (broth microdilution). It counts as cell-based, Corynebacterium jeikeium. Here is the method: as §1, §2
Experiment [7] concerns S. epidermidis. It counts as cell-based, Staphylococcus epidermidis. A digest of the protocol: as §3
In experiment [8] the test system is B. subtilis. Put plainly: Kill or inhibit growth/proliferation; morphology, biofilm and growth disruption (Tables 5, 6). It counts as cell-based, Bacillus subtilis. Details: key: A: Peptide aggregates; B: Less hyphal formation; Clumps; Diffuse clumps and small polyps; F: Diffuse growth; H: Thin; I: Growth inhibition; Microcolony formation; Rippled; Small polyps; Thick; W: Halo formation on top, microlonies on bottom.

For experiment [9], the system named is C. jeikeium. The experiment is described as above. The format is cell-based, Corynebacterium jeikeium. Further details: key: A: Peptide aggregates; B: Less hyphal formation; Clumps; Diffuse clumps and small polyps; F: Diffuse growth; H: Thin; I: Growth inhibition; Microcolony formation; Rippled; Small polyps; Thick; W: Halo formation on top, microlonies on bottom.

In experiment [10] the test system is M. luteus. The description is as above. Details: key: A: Peptide aggregates; B: Less hyphal formation; Clumps; Diffuse clumps and small polyps; F: Diffuse growth; H: Thin; I: Growth inhibition; Microcolony formation; Rippled; Small polyps; Thick; W: Halo formation on top, microlonies on bottom. The format is cell-based, Micrococcus luteus.
Experiment [11] deals with MRSA. The description is as above. It counts as cell-based, Methicillin-resistant Staphylococcus aureus. Details: key: A: Peptide aggregates; B: Less hyphal formation; Clumps; Diffuse clumps and small polyps; F: Diffuse growth; H: Thin; I: Growth inhibition; Microcolony formation; Rippled; Small polyps; Thick; W: Halo formation on top, microlonies on bottom.
Experiment [12] concerns S. epidermidis. The description is as above. It counts as cell-based, Staphylococcus epidermidis. Details: key: A: Peptide aggregates; B: Less hyphal formation; Clumps; Diffuse clumps and small polyps; F: Diffuse growth; H: Thin; I: Growth inhibition; Microcolony formation; Rippled; Small polyps; Thick; W: Halo formation on top, microlonies on bottom.
The test system of experiment [13] is S. pneumoniae. Described as above. Further details: key: A: Peptide aggregates; B: Less hyphal formation; Clumps; Diffuse clumps and small polyps; F: Diffuse growth; H: Thin; I: Growth inhibition; Microcolony formation; Rippled; Small polyps; Thick; W: Halo formation on top, microlonies on bottom. It counts as cell-based, Streptococcus pneumoniae.
Experiment [14] concerns C. jejuni. Described as above. Details: key: A: Peptide aggregates; B: Less hyphal formation; Clumps; Diffuse clumps and small polyps; F: Diffuse growth; H: Thin; I: Growth inhibition; Microcolony formation; Rippled; Small polyps; Thick; W: Halo formation on top, microlonies on bottom. The format is cell-based, Campylobacter jejuni.
Experiment [15] has as its system P. aeruginosa. The experiment is described as above. It counts as cell-based, Pseudomonas aeruginosa. Details: key: A: Peptide aggregates; B: Less hyphal formation; Clumps; Diffuse clumps and small polyps; F: Diffuse growth; H: Thin; I: Growth inhibition; Microcolony formation; Rippled; Small polyps; Thick; W: Halo formation on top, microlonies on bottom.
The test system of experiment [16] is C. albicans. Described as above. It counts as cell-based, Candida albicans. Further details: key: A: Peptide aggregates; B: Less hyphal formation; Clumps; Diffuse clumps and small polyps; F: Diffuse growth; H: Thin; I: Growth inhibition; Microcolony formation; Rippled; Small polyps; Thick; W: Halo formation on top, microlonies on bottom.
The subject of experiment [17] is microorganisms. Put plainly: Peptides having multiple activities (targeting/binding, antimicrobial, growth or phenotype altering). From the text:
In certain embodiments, peptides described herein can have multiple activities. Thus for example, a peptide can have both binding/targeting activity and antimicrobial activity. Such peptides can be used, e.g., in a chimeric construct, for any or all of these properties. Thus, for example, a peptide designated “B” in Table 8 can be used as a targeting peptide. If it is also designated G or M it can also be used for antimicrobial activity.

Experiment [18] has as its system S. mutans. It counts as cell-based, Streptococcus mutans.
For experiment [19], the system named is E. coli. It counts as cell-based, Escherichia coli. How it is done:
as §1, §2

Experiment [20] concerns Klebsiella pneumoniae KAY 2026. The format is cell-based. Here is the method:
(§4) Aerobic Gram-negative organisms were grown in Lauri-Bertaini (LB) broth and Gram-positive bacteria in Brain-heart infusion (BHI) broth. Streptococcus mutans JM11 (spectinomycin resistant, UA140 background) was grown in Todd-Hewitt (TH) broth under anaerobic conditions (80% N2, 15% CO2, 5% H2) at 37° C. Merritt et al. (2005) J Microbiol Meth., 61: 161-170. All bacteria were grown overnight to an OD600 of 0.8-1.0 prior to appropriate dilution and antimicrobial testing.
as §2

The subject of experiment [21] is Staphylococcus aureus Newmann. It counts as cell-based. How it is done: as §4, §2
Experiment [22] concerns S. mutans. Put plainly: Post-antibiotic effect assay (growth retardation after 10 min exposure). The format is cell-based, Streptococcus mutans. To be noted: S. mutans monoculture, peptide 10 min, then fresh medium. How it is done: The activity and selectivity of MH-STAMPs after a 10 min incubation was determined by growth retardation experiments against targeted and untargeted bacteria in monocultures, as described previously (Id.). Cells from overnight cultures were diluted to ˜5×10^6 cfu/mL in MH (or TH with 1% sucrose for S. mutans), normalized by OD600 0.05-0.1 and seeded to 96-well plates. Cultures were then grown under the appropriate conditions for 2 h (3 h for S. mutans) prior to the addition of peptides for 10 min. Plates were then centrifuged at 3000×g for 5 min, the supernatants discarded, fresh medium returned (MH or TH without sucrose for S. mutans), and incubation resumed. Bacterial growth after treatment was then monitored over time by OD600.

Experiment [23] has as its system Mixed planktonic populations of P. aeruginosa, E. coli, S. epidermidis, and S. mutans. The experiment in a line: Microbial population shift assay. It counts as cell-based. To be noted: 10 μM peptide, 24 h. How it is done: Peptide (10 μM) or mock-treatment (1× PBS) was then added and samples were incubated at 37° C. for 24 h under anaerobic conditions (80% N2, 15% CO2, 5% H2). […] Plates were then incubated 37° C. under aerobic conditions (TH plates were incubated anaerobically) and colonies counted after 24 h to determine survivors. […] Gram stains and direct microscopic observation (from select isolated colonies) were undertaken to confirm species identity (data not shown). The detection limit of the assay was 200 cfu/mL.

The test system of experiment [24] is A. baumannii. Put plainly: MIC (broth microdilution). It counts as cell-based, Acinetobacter baumannii. Here is the method:
as §1, §2

Experiment [25] has as its system C. difficile. The experiment in a line: MIC (broth microdilution). It counts as cell-based, Clostridium difficile. Here is the method: as §1, §2
In experiment [26] the test system is E. coli. The experiment in a line: Kill or inhibit growth/proliferation; morphology, biofilm and growth disruption (Tables 5, 6). Details: key: A: Peptide aggregates; B: Less hyphal formation; Clumps; Diffuse clumps and small polyps; F: Diffuse growth; H: Thin; I: Growth inhibition; Microcolony formation; Rippled; Small polyps; Thick; W: Halo formation on top, microlonies on bottom. It counts as cell-based, Escherichia coli.

The values below come from patent publication US20110039762A1, “TARGETED ANTIMICROBIAL MOIETIES” (C3 JIAN, INC., priority 2009, published 2011).

By MIC is commonly meant the least concentration at which growth counts as inhibited.

≈ marks a conversion by molar mass, not a printed value. Like-named read-outs stand apart in the source and are kept apart here. Bridge positions count the residues as written; N and C are the ends. Square brackets hold non-standard residues; d marks the D form. Ends that are not written are not given here. Peptide text beside a SMILES is read from it. I, II: the chains in the order shown. Aoc = NCCCCCCCC(=O)O

As to “GSVIKKRRKRMAKKKHRKLLKKTRIQRRRAGK [PF-527]”, the minimal inhibitory concentration (MIC) entry is recorded as “P. aeruginosa, 50 μM” in experiment [1]; “MRSA , 50 μM” in experiment [2]; “T. rubrum, 25 μM” in experiment [3]; “A. niger, 50 μM” in [4]; “B. subtilis, 12.5 μM” in experiment [5]; “C. jeikeium, 6.25 μM” in experiment [6]. Further, the MIC entry in experiment [7] is reported as “S. epidermidis, 25 μM”. The “Organism, effect” value in experiment [8] is on record as “B. subtilis (I)”; in experiment [9] it was “C. jeikeium (I)”; in [10], “M. luteus (S)”; in experiment [11], “MRSA (I)”; in [12], “S. epidermidis (M)”; in experiment [13], “S. pneumoniae (H)”. The “Organism, effect” value is on record as “C. jejuni (M)” in experiment [14], “P. aeruginosa (I)” in [15] and “C. albicans (B)” in experiment [16]. Further, the Activities entry in [17] was “G B M”.
`CC[C@H](C)[C@H](NC(=O)[C@H](Cc1ccccc1)NC(=O)CCCCCCCNC(=O)[C@H](CCCCNC(=O)CNC(=O)CNC(=O)CNC(=O)[C@H](Cc1c[nH]cn1)NC(=O)[C@H](CCCCN)NC(=O)[C@H](CCCNC(=N)N)NC(=O)[C@H](Cc1c[nH]cn1)NC(=O)[C@H](CCCCN)NC(=O)[C@H](CCCNC(=N)N)NC(=O)[C@H](Cc1c[nH]cn1)NC(=O)[C@H](CCCCN)NC(=O)[C@H](CCCNC(=N)N)NC(=O)[C@H](Cc1c[nH]cn1)NC(=O)[C@H](CCCCN)NC(=O)[C@@H](N)CCCCN)NC(=O)CNC(=O)CNC(=O)CNC(=O)[C@H](C)NC(=O)[C@H](CCC(=O)O)NC(=O)[C@H](CC(N)=O)NC(=O)[C@H](C)NC(=O)[C@H](C)NC(=O)[C@H](CC(=O)O)NC(C)=O)C(=O)N[C@@H](CCCNC(=N)N)C(=O)N[C@@H](CCCCN)C(=O)N[C@@H](Cc1ccccc1)C(=O)N[C@@H](CC(C)C)C(=O)N[C@@H](CCCCN)C(=O)N[C@@H](CCCCN)C(=O)N[C@@H](Cc1c[nH]c2ccccc12)C(=O)N[C@@H](CC(C)C)C(=O)N[C@@H](CC(C)C)C(N)=O` [BL(KH)-20] (I: Ac-DAANEAGGGK[Aoc]FIRKFLKKWLL-NH2 / II: H-KKHRKHRKHRKHGGG; amide I:10-II:C): the MIC in [18] worked out at 6.25 µM (≈ 27.3 µg/mL); in experiment [1] it was 27.5 ± 7.90 µM (≈ 120 µg/mL); in experiment [7] it was 6.25 µM (≈ 27.3 µg/mL); in experiment [19] it was 6.25 µM (≈ 27.3 µg/mL); in [20], 6.25 µM (≈ 27.3 µg/mL); in experiment [21], 6.25 µM (≈ 27.3 µg/mL). The “bacterial growth (OD600) after treatment” value in experiment [22] was “not altered”. In addition, the “recoverable (surviving) cfu/mL” value is given as “unchanged numbers” in experiment [23] (E. coli in mixed culture), “not observed” in experiment [23] (P. aeruginosa in mixed culture), “unchanged numbers” in [23] (S. epidermidis in mixed culture) and “higher than input cfu/mL” in experiment [23] (S. mutans in mixed culture).
With YIQFHLNQQPRPKVKKIKIFL-NH2 [PF-531], the minimum inhibitory concentration (MIC) result in [18] (S. mutans) is reported as “S. mutans, 12.5 μM”; in experiment [1] (P. aeruginosa), “P. aeruginosa, 50 μM”; in [24] it was “A. baumannii, 25 μM”; in experiment [3], “T. rubrum, 50 μM”; in experiment [4], “A. niger, 25 μM”; in experiment [5], “B. subtilis, 25 μM”. Also, the minimum inhibitory concentration (MIC) result was “C. difficile, 12.5 μM” in experiment [25]; “C. jeikeium, 6.25 μM” in experiment [6]; “S. epidermidis, 50 μM” in experiment [7] (S. epidermidis). Moreover, the “Organism, effect” value in experiment [12] is “S. epidermidis (I)”; in experiment [13], “S. pneumoniae (C)”; in experiment [26], “E. coli (M)”; in experiment [15], “P. aeruginosa (I)”. Also, in experiment [17], the Activities entry is “G M”.
